Reference: publication PMC12430443, “Discovery of Novel Benzamide-Based Sigma-1 Receptor Agonists with Enhanced Selectivity and Safety” (Molecules, 2025)

How the values were obtained:
adrenergic α2a receptor = adrenergic α2a receptor (Homo sapiens, UniProt P08913); assay: Off-target panel, GTPγS binding assay; type: biochemical; conditions: 10 µM, duplicate; % inhibition of reference agonist activity
Procedure: (§1) Among the synthesized compounds, four derivatives were selected based on their affinity and selectivity profiles. […] The remaining compounds (2, 3, 6, and 7) were assessed for their agonist and antagonist activities across a panel of 58 receptors relevant to CNS disorders, including serotonin, adenosine, adrenergic, cannabinoid, dopamine, histamine, and muscarinic receptors. These assays were conducted at a concentration of 10 µM, in duplicate, utilizing aequorin [19], cAMP HTRF™ [20], and GTPγS binding assays, as detailed in Table 2. […] Specifically, compound 6 antagonized four receptors (5-HT2A, 5-HT2C, α1a, H1), while compound 7 was active against five receptors (5-HT2A, 5-HT3, α1a, H1, M1). […]
(§2) Agonist and antagonist activities of the test compound are expressed as the percentage of the activity of the reference agonist at its EC100 concentration or the percentage of inhibition of the reference agonist activity at its EC80 concentration, respectively.
(§3) For the GTPγS scintillation proximity assay, optimized specific conditions were determined for each receptor. […] were estimated with a PerkinElmer TopCount reader.

adrenergic α2b receptor = adrenergic α2b receptor (Homo sapiens, UniProt P18089); assay: Off-target panel, GTPγS binding assay; type: biochemical; conditions: 10 µM, duplicate; % inhibition of reference agonist activity
Procedure: as §1, §2, §3

D4.4 = D4.4 (Homo sapiens, UniProt P21917); assay: Off-target panel of recombinant human receptors; type: cell-based; conditions: 10 µM, duplicate; % inhibition of reference agonist activity
Procedure: (§4) Among the synthesized compounds, four derivatives were selected based on their affinity and selectivity profiles. […] The remaining compounds (2, 3, 6, and 7) were assessed for their agonist and antagonist activities across a panel of 58 receptors relevant to CNS disorders, including serotonin, adenosine, adrenergic, cannabinoid, dopamine, histamine, and muscarinic receptors. These assays were conducted at a concentration of 10 µM, in duplicate, utilizing aequorin [19], cAMP HTRF™ [20], and GTPγS binding assays, as detailed in Table 2. […] Specifically, compound 6 antagonized four receptors (5-HT2A, 5-HT2C, α1a, H1), while compound 7 was active against five receptors (5-HT2A, 5-HT3, α1a, H1, M1).
as §2

S2R = target: T1, S2R (Homo sapiens, UniProt Q5BJF2); assay: S2R competitive radioligand binding, [3H]-DTG with excess (+)-pentazocine, Jurkat cell membranes; conditions: [3H]-DTG displacement with excess (+)-pentazocine, n = 2
T1 construct: For the S2R assay, Jurkat cell membranes (10–20 μg protein/tube) were incubated at room temperature for 1 h; host or cells: Jurkat cell membranes
Text: S1R and S2R affinities were classically evaluated through competitive binding assays using radioligands, following the protocol described by Ganapathy et al.. The selective radioligand [^3H] (+)-pentazocine was employed as the classic prototypical ligand, selectively binding to the orthosteric S1R-binding sites. […] Jurkat cell membranes served as the receptor source in both assays. The equilibrium dissociation constants (Ki) for S1R and S2R were derived from the IC50 values of each compound, and selectivity ratios (S2R/S1R) were subsequently calculated (Table 1, Figures S2 and S3).
Binding assays were performed by Eurofins Cerep (Poitiers, France) according to the protocol of Ganapathy. […] For the S2R assay, Jurkat cell membranes (10–20 μg protein/tube) were incubated at room temperature for 1 h in the same buffer with [^3H]-DTG (25 nM) in the presence of (+)-pentazocine (1 μM) to saturate S1R, along with a range of test compound concentrations. Bound radioactivity was quantified by liquid scintillation counting. Nonspecific binding was determined under identical conditions in the presence of 10 μM unlabeled haloperidol. The IC50 values (concentration causing a half-maximal inhibition of control-specific binding) and Hill coefficients (nH) were determined by non-linear regression analysis of the competition curves generated with mean replicate values using Hill equation curve-fitting. This analysis was performed using software developed at Cerep (Hill software) and validated by comparison with data generated by the commercial software SigmaPlot ®4.0 for Windows® (©1997 by SPSS Inc.). Inhibition constants (Ki) were calculated from IC50 values using the method of Cheng and Prusoff.

adrenergic α1b receptor = adrenergic α1b receptor (Homo sapiens, UniProt P35368); assay: Off-target panel, aequorin functional assay; type: cell-based; conditions: 10 µM, duplicate; % inhibition of reference agonist activity
Procedure: as §4
(§5) Rapidly, the tests were performed by Euroscreen (https://euroscreenfast.com/) with recombinant human G-coupled receptor-expressing cell lines using aequorin functional assays for serotonin 5-HT2A, 5-HT2B, 5-HT2C, 5-HT3, and 5-HT5A, adrenergic α1a and α1b, angiotensin AT1, cholesistokinin CCFK1, endothelin ETA, histamine H1, muscarinic M1 and M3, neurokinin NK1 and NK2, vasopressin V1a, and vasoactive intestinal peptide VPAC1 receptor analysis. Then, cAMP HTRF^TM assays were used to analyze serotonin 5-HT1A, 5-HT4E, 5-HT6, and 5-HT7, adenosine A1, A2A, and A3, adrenergic β1 and β2, cannabinoid CB1, dopamine D1, histamine H2, and neuropeptide Y NPY receptors. GTPγS^35 assays were used to analyze serotonin 5-HT1B, adrenergic α2a and α2b, dopamine D2, muscarinic M2 and M4, opioid δ, κ and µ, and somatostatine SST4 receptors.
as §2
(§6) For the aequorin assays, different cell lines co-expressing the receptors were grown in specific culture media and incubated for 4 h with coelenterazine h. For agonist testing, cell suspensions were mixed with test or reference agonists in a 96-well plate. For antagonist testing, the reference agonist at its EC80 (final concentration) was injected to the mix the containing cells and the tested compound. The resulting emission of light was recorded using the Hamamatsu Functional Drug Screening System 6000 [19].

adrenergic α1a receptor = adrenergic α1a receptor (Homo sapiens, UniProt P35348); assay: Off-target panel, aequorin functional assay; type: cell-based; conditions: 10 µM, duplicate; % inhibition of reference agonist activity
Procedure: as §4, §5, §2, §6

serotonin 5-HT3 receptor = serotonin 5-HT3 receptor (Homo sapiens, UniProt P46098); assay: Off-target panel, aequorin functional assay; type: cell-based; conditions: 10 µM, duplicate; % inhibition of reference agonist activity
Procedure: as §4, §5, §2, §6

histamine H1 receptor = histamine H1 receptor (Homo sapiens, UniProt P35367); assay: Off-target panel, aequorin functional assay; type: cell-based; conditions: 10 µM
Procedure: as §4, §5, §2, §6

T1 sequence (Q5BJF2 whole entry): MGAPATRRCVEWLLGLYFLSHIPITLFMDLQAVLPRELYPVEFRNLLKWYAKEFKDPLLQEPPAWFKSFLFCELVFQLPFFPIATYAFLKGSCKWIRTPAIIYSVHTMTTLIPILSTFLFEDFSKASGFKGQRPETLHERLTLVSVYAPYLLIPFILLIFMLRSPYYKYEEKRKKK
D4.4, sequence (P21917 whole entry): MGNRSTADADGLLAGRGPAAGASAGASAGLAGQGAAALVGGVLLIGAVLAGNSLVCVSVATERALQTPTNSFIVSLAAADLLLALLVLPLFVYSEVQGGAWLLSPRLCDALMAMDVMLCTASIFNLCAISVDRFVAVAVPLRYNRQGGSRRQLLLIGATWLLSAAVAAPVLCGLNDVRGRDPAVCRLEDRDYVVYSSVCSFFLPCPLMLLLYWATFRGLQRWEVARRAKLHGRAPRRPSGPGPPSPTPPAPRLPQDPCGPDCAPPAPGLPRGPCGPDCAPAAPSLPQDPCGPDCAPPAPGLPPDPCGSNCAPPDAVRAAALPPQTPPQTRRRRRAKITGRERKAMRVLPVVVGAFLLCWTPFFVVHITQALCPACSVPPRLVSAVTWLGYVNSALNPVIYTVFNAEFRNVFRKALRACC
adrenergic α1b receptor, sequence (P35368 whole entry): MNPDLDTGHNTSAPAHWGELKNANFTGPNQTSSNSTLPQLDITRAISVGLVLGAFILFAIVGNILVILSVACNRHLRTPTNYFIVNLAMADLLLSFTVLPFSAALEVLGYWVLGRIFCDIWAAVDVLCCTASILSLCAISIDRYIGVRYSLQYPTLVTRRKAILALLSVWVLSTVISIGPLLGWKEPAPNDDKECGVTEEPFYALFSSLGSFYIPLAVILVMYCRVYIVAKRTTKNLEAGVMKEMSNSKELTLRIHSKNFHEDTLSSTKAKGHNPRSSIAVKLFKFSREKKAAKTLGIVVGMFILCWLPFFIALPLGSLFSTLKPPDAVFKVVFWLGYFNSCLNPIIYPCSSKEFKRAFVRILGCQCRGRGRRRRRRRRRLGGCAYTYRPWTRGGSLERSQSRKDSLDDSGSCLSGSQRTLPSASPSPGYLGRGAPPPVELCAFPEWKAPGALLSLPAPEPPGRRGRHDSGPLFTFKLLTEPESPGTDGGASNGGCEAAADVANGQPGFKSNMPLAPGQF
adrenergic α1a receptor, sequence (P35348 whole entry): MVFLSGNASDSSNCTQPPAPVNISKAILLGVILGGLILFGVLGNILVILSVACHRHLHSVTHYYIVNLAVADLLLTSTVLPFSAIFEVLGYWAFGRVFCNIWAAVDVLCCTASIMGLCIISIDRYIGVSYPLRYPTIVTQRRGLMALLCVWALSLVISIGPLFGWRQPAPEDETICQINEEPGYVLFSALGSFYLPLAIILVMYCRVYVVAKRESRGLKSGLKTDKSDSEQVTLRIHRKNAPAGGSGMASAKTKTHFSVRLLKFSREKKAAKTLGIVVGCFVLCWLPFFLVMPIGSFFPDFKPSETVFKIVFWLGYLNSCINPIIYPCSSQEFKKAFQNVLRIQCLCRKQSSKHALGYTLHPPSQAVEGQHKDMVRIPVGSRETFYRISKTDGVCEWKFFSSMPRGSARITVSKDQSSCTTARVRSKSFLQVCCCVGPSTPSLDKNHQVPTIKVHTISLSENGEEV
adrenergic α2a receptor, sequence (P08913 whole entry): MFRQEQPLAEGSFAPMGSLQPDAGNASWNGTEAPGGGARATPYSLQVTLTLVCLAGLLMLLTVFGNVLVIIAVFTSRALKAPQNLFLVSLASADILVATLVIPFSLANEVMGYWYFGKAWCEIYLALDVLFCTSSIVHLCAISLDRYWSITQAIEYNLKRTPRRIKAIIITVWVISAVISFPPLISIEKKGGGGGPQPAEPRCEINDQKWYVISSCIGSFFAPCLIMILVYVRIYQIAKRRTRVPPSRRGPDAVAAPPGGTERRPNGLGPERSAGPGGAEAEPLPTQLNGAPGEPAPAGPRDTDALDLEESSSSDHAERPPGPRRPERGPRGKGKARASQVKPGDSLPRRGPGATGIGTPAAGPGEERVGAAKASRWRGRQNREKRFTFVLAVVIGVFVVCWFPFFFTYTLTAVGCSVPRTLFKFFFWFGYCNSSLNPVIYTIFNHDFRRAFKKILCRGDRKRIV
serotonin 5-HT3 receptor, sequence (P46098 24-478): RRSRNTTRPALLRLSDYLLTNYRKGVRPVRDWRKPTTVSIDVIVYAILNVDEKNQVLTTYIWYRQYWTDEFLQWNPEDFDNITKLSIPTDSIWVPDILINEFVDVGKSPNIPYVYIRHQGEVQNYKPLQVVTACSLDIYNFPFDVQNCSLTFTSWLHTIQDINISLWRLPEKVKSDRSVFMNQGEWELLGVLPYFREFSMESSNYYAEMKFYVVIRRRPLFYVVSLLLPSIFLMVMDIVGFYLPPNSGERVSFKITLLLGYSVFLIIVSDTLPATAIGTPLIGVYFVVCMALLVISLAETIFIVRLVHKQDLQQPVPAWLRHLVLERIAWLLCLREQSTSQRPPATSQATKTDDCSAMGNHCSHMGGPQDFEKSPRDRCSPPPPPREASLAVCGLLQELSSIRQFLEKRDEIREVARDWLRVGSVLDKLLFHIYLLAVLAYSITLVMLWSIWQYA
adrenergic α2b receptor, sequence (P18089 whole entry): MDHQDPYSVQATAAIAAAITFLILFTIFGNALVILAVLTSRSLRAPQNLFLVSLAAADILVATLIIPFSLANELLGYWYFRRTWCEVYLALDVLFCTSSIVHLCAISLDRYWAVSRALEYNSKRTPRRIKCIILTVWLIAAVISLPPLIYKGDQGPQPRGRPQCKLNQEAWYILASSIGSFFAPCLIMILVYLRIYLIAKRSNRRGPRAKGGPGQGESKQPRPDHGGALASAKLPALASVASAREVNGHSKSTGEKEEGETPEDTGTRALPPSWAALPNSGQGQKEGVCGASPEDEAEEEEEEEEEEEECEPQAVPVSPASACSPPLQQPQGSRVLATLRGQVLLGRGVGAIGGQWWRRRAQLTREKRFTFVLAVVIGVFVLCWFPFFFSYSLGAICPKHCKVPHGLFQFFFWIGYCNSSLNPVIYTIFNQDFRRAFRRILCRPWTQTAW
histamine H1 receptor, sequence (P35367 whole entry): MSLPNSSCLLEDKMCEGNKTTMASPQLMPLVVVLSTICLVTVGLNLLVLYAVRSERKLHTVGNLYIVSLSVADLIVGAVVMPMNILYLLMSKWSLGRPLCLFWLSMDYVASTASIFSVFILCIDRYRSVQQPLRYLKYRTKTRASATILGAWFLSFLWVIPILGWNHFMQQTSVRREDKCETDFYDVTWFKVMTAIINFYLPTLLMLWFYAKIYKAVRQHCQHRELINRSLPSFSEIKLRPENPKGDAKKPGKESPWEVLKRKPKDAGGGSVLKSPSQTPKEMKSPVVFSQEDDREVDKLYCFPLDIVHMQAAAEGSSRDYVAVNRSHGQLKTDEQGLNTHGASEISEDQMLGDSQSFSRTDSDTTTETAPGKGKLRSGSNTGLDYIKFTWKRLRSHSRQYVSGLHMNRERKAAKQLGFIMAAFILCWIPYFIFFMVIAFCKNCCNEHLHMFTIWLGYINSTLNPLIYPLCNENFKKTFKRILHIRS

Structure (SMILES)	α2a [b] antagonist activity (adrenergic α2a receptor) [%]	α2b [b] antagonist activity (adrenergic α2b receptor) [%]	D4.4 [b] antagonist activity (D4.4) [%]	IC50 (S2R) [nM]	α1b [b] antagonist activity (adrenergic α1b receptor) [%]	α1a [b] antagonist activity (adrenergic α1a receptor) [%]	5-HT3 [b] antagonist activity (serotonin 5-HT3 receptor) [%]	H1 antagonist activity (in words) (histamine H1 receptor)
CN(CCC(=O)NCc1cccc(Cl)c1)Cc1ccccc1 [Compound 2, 3-(Benzylmethylamino)-N-(3-chlorobenzyl)propanamide]	61	59	64	270	70	64	68	–
CN(CCC(=O)NCc1ccc(C#N)cc1)Cc1ccccc1 [Compound 6, 3-(Benzylmethylamino)-N-(4-cyanobenzyl)propanamide]	–	–	–	2400	–	–	–	antagonized
